Test results from article PMC11952234, “Functional profiling of synthetic camel milk-derived peptides with implication in glucose transport and diabetes” (PLOS One, 2025).
Like-named read-outs stand apart in the source and are kept apart here. Marks after values point to notes of the source that are not given here. Residues, ends and D or L forms follow the SMILES beside them.

How the values were obtained:
HepG2 cells = assay: Glucose uptake assay (Glucose Uptake-Glo) in HepG2 cells; assay type: cell-based, human; conditions: 1 hour, 37°C; for glucose uptake, specific luminescence signal, Average: Average of Experiments 1-5, HepG2, 0.1 mg/ml peptide or 1 μM insulin, minimal data set for Figure 5; for % of glucose uptake: HepG2 cells, 0.1 mg/ml peptide or 1 μM insulin, % of insulin's response taken as 100%, mean ± SD of five independent experiments in triplicate
Procedure: Glucose uptake in HepG2 cells was carried out using Glucose Uptake-Glo Assay (Promega). For this, cells seeded in a 96-well white plate (50,000 cells/well) were first washed with PBS and starved in phenol red-, glucose-, and serum-free medium (Dulbecco’s modified Eagle’s medium containing 0.01 mM HEPES, 0.3 mg/ml glutamine, 100 IU/ml penicillin, and 100 µg/ml streptomycin). […] The treatment was removed, and the cells were washed once with PBS and then incubated with 50 μL/well of freshly prepared 2-deoxyglucose (500 μM) for 10 minutes at room temperature. The uptake process was stopped and neutralized, followed by the addition of 50 μl/well of 2-deoxyglucose-6-phosphate (2DG6P) detection reagent and incubation for 15-60 minutes at room temperature. The glucose-6-phosphate dehydrogenase (G6PDH) oxidizes 2DG6P to 6-phosphodeoxygluconate (6PDG) and reduces NADP + to NADPH. The reductase uses NADPH to convert the proluciferin to luciferin, which is then used by Ultra-Glo™ recombinant luciferase to produce luminescence. This luminescence, proportional to the amount of 2-deoxyglucose transported inside the cells upon treatment, was then measured using a 0.3–1 second integration on GloMax® Discover luminometer according to Glucose Uptake-Glo™ protocol.

[1] = tested on: insulin receptor (IR); insulin-induced IR-Rluc/IRS1-YFP BRET in HEK293 cells; assay: BRET assay of IR activation, peptides combined with insulin; assay type: cell-based, human; conditions: for insulin-induced BRET, % of insulin's response in the vehicle, Average: Average of Experiments 1-7; for insulin-induced BRET, % of insulin's response in the vehicle, Average / insulin-induced BRET, % of insulin's response in the vehicle / % of maximal BRET (insulin-induced): 1 μM insulin + 0.1 mg/ml peptide; for insulin-induced BRET, % of insulin's response in the vehicle, Average / insulin-induced BRET, % of insulin's response in the vehicle: HEK293, minimal data set for Figure 2; for % of maximal BRET (insulin-induced) / profile on insulin-dependent BRET response in combined treatment (in words): HEK293 cells; for % of maximal BRET (insulin-induced): 1 hour, 37°C, % of insulin's response in the vehicle taken as 100%, mean ± SD of five to seven independent experiments in triplicate; for profile on insulin-dependent BRET response in combined treatment (in words): 0.1 mg/ml peptide + 1 μM insulin, compared to insulin alone (Vehicle)
Procedure: (§1) HepG2 and HEK293 cells were maintained at 37°C, 5% CO2 in complete RPMI and Dulbecco’s modified Eagle’s medium (DMEM), respectively, containing 0.3 mg/ml glutamine, 100 IU/ml penicillin, and 100 µg/ml streptomycin) supplemented with 10% fetal calf serum (Gibco, Carlsbad, CA, USA). The transient transfection in HEK293 cells was carried out in 75 cm flask containing 10^7 cells using Lipofectamine 2000 and 5 µg of IR-Rluc and 5 µg of IRS1-YFP (for BRET and phosphorylation experiments) as previously described. All assays were performed 48 hours post-transfection.
(§2) BRET technology was used for IR activation and its interaction with IRS1 as previously described. […] Following treatments, 10 μl of Coelenterazine h was added to a final concentration of 5 µ M and BRET measurements were carried out using the Tristar 2 multi-label plate reader (Berthold, Germany), allowing luminescence recording and signal integration at 480 nm and 540 nm.
For BRET, the data were normalized by taking as 100% of the maximal insulin-induced BRET signal in the vehicle and analyzed using GraphPad Prism software (San Diego, CA, USA). Statistical analyses were performed statistical significance between the different treatments and conditions as indicated in the figures and tables and their captions. […] The significance is indicated in the figures by stars (****p-value < 0.0001, ***p-value < 0.001, ** p-value < 0.01, * p-value < 0.05), and the absence of stars means non-significant (p-value > 0.05). However, the two-way ANOVA was used for multiple comparisons to determine the statistical significance between the different peptides when compared to each other in the different assays as described in the tables. In this case, the different letters indicate statistically significant effects (p-value < 0.05), while the same letters indicate no significant difference between the different treatments compared to each other.

[2] = target: T1, insulin receptor (IR); interaction of IR-Rluc with IRS1-YFP in HEK293 cells (Homo sapiens, UniProt P06213); assay: BRET assay of IR activation (IR-Rluc/IRS1-YFP), single treatment, dose-response; assay type: cell-based; conditions: HEK293, 1 hour, 37°C, minimal data set for Figure 1, average
T1 construct: expressed in transfected cells; host or cells: HEK293 cells, transient co-transfection; plasmids provided by Dr. Tarik Issad (Cochin Institute, Paris)
Procedure: as §1, §2
Statistical analyses were performed statistical significance between the different treatments and conditions as indicated in the figures and tables and their captions. […] The significance is indicated in the figures by stars (****p-value < 0.0001, ***p-value < 0.001, ** p-value < 0.01, * p-value < 0.05), and the absence of stars means non-significant (p-value > 0.05). However, the two-way ANOVA was used for multiple comparisons to determine the statistical significance between the different peptides when compared to each other in the different assays as described in the tables.

[3] = HEK293, read-out: BRET, % of the maximal response of insulin, Average, peptide 0.001 mg/ml
[4] = HEK293, read-out: BRET, % of the maximal response of insulin, Average, peptide 0.005 mg/ml
[5] = HEK293, read-out: BRET, % of the maximal response of insulin, Average, peptide 0.01 mg/ml
[6] = HEK293, read-out: BRET, % of the maximal response of insulin, Average, peptide 0.05 mg/ml
[7] = HEK293, read-out: BRET, % of the maximal response of insulin, Average, peptide 0.1 mg/ml
[8] = HEK293, read-out: BRET, % of the maximal response of insulin, Average, peptide 0.5 mg/ml
[9] = HEK293, read-out: BRET, % of the maximal response of insulin, Average, peptide 1 mg/ml

T1 sequence (P06213 28-758 limits assumed): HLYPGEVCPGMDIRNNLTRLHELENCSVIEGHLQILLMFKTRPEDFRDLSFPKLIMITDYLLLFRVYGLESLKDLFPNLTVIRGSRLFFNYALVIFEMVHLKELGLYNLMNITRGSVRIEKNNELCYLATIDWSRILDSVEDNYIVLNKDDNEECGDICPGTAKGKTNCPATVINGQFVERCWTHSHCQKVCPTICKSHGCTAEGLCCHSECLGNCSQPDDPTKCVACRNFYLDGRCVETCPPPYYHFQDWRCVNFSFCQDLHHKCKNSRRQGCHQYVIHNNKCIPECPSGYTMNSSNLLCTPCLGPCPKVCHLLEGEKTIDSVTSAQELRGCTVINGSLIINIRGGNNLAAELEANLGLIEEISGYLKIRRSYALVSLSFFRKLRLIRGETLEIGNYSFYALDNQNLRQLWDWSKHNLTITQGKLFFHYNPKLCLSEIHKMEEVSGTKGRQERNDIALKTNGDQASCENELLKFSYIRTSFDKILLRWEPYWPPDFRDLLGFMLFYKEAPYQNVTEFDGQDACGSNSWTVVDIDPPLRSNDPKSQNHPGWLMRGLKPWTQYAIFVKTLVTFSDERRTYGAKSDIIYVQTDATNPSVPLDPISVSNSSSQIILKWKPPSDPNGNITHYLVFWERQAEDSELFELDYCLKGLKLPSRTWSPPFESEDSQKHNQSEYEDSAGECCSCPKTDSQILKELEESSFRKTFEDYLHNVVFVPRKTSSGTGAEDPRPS
T1 sequence (P06213 763-1382 limits assumed): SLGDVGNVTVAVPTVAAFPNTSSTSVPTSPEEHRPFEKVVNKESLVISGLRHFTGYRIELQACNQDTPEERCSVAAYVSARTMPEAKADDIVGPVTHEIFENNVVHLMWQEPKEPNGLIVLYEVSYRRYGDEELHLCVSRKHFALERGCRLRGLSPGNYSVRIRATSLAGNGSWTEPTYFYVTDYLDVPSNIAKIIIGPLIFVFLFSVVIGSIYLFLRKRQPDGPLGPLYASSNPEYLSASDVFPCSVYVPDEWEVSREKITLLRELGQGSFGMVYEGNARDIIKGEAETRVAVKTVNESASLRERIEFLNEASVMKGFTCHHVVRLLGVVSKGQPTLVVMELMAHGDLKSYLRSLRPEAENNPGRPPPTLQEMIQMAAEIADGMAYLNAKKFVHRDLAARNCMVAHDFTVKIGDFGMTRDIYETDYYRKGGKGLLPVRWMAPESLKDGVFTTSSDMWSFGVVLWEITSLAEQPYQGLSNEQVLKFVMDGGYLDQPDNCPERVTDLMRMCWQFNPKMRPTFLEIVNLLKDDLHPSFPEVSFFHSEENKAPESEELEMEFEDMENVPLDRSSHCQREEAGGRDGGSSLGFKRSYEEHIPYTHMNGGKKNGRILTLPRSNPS

Emax [2, 3] [%]	Emax [2, 4] [%]	Emax [2, 5] [%]	Emax [2, 6] [%]	Emax [2, 7] [%]	Emax [2, 8] [%]	Emax [2, 9] [%]	Molecule	glucose uptake, specific luminescence signal, Average (HepG2 cells)	% of glucose uptake (HepG2 cells)	insulin-induced BRET, % of insulin's response in the vehicle, Average [1]	insulin-induced BRET, % of insulin's response in the vehicle ([1]; Experiment 1)	insulin-induced BRET, % of insulin's response in the vehicle ([1]; Experiment 2)	insulin-induced BRET, % of insulin's response in the vehicle ([1]; Experiment 3)	insulin-induced BRET, % of insulin's response in the vehicle ([1]; Experiment 4)	insulin-induced BRET, % of insulin's response in the vehicle ([1]; Experiment 5)	insulin-induced BRET, % of insulin's response in the vehicle ([1]; Experiment 6)	insulin-induced BRET, % of insulin's response in the vehicle ([1]; Experiment 7)	% of maximal BRET (insulin-induced) [1]	profile on insulin-dependent BRET response in combined treatment (in words) [1]
10.1	16.5	37.6	43	58.5	56.7	55.3	CC(C)C[C@H](NC(=O)[C@H](Cc1ccccc1)NC(=O)[C@@H]1CCCN1C(=O)[C@H](CCCNC(=N)N)NC(=O)[C@@H](N)CC(C)C)C(=O)O [Peptide P1, LRPFL] (H-LRPFL-OH)	1669300	66 ± 18^b %	103.6	73.6	47.0	66.9	125.9	98.2	190.8	122.6	104 ± 18^a %	non-efficient
–	–	–	–	–	–	–	Human insulin [reference compound]	2522500	100^a %	–	–	–	–	–	–	–	–	100^a %	–
6	11	19.1	48.8	47.7	46.3	41.4	CC(C)C[C@H](N)C(=O)N1CCC[C@H]1C(=O)N[C@H](C(=O)N1CCC[C@H]1C(=O)N[C@@H](CCC(N)=O)C(=O)O)C(C)C [Peptide P3, LPVPQ] (H-LPVPQ-OH; N-terminus and C-terminus assumed)	1788200	71 ± 12^b %	110.8	81.5	130.9	81.8	135.0	93.0	152.3	100.8	111 ± 11^a %	non-efficient

Molecule	Emax [2, 3] [%]	Emax [2, 4] [%]	Emax [2, 5] [%]	Emax [2, 6] [%]	Emax [2, 7] [%]	Emax [2, 8] [%]	Emax [2, 9] [%]	glucose uptake, specific luminescence signal, Average (HepG2 cells)	% of glucose uptake (HepG2 cells)	insulin-induced BRET, % of insulin's response in the vehicle, Average [1]	insulin-induced BRET, % of insulin's response in the vehicle ([1]; Experiment 1)	insulin-induced BRET, % of insulin's response in the vehicle ([1]; Experiment 2)	insulin-induced BRET, % of insulin's response in the vehicle ([1]; Experiment 3)	insulin-induced BRET, % of insulin's response in the vehicle ([1]; Experiment 4)	insulin-induced BRET, % of insulin's response in the vehicle ([1]; Experiment 5)	insulin-induced BRET, % of insulin's response in the vehicle ([1]; Experiment 6)	insulin-induced BRET, % of insulin's response in the vehicle ([1]; Experiment 7)	% of maximal BRET (insulin-induced) [1]	profile on insulin-dependent BRET response in combined treatment (in words) [1]
CC[C@H](C)[C@H](NC(=O)[C@@H]1CCCN1C(=O)[C@@H](N)Cc1ccc(O)cc1)C(=O)O [Peptide P9, YPI] (H-Tyr-Pro-Ile-OH; N-terminus and C-terminus assumed)	3.3	14.7	24.7	29.3	40.2	39.3	31.7	2361900	–	108.5	96.6	93.8	107.9	136.4	113.3	127.9	83.8	109 ± 7^a %	non-efficient
